Patent US12533313B2, “Inhalable liposomal sustained release composition for use in treating pulmonary diseases” (INSPIRMED CORP., priority 2018, dated 2026)
Where “and” joins values, the source holds several entries; their conditions need not be identical. Equal values may be shown once.

Columns and labels:
[1] = system: bleomycin-induced pulmonary fibrosis in mice; test: Efficacy of liposomal and oral nintedanib in an IPF animal model, histopathological evaluation of lung tissue; type: in vivo; conditions: 60 mg/kg, oral, QD ×10, Day 21, listed as free nintedanib
Method: Q2D×4 signifies one dose administered every other day on day 7, 9, 15, and 17. QD×10 signifies mice received once daily dosing on day 7, 8, 9, 10, 11, 14, 15, 16, 17, and 18. Blood and lung tissue samples were collected on day 21.
Efficacy was determined by histopathological evaluation of mouse lung tissue.
Degree of lesions stained with HE was graded from one to five depending on severity: […]

[2] = Lung retention study of liposomal TKI in healthy mice; type: in vivo; conditions: IT, 3.74 mg/mL, after two hours
Method: (§1) A lung retention study of liposomal TKI in healthy mice was conducted to compare the residence times of free form versus liposomal TKI formulations in the mouse lung.

IPF = conditions: cited from earlier work
[3] = Lung retention of nintedanib in an IPF animal model; type: in vivo; conditions: fibrotic mice, once-daily oral dosing of 60 mg/kg
Method: First, pulmonary fibrosis was induced by IT instillation of 2.5 mg/kg bleomycin to each mouse. […] Q2D×2 signifies one dose administered every other day for a total of two doses. Blood and lung tissue samples were collected at predetermined time points (Table 7).

C57BL/6 mice = test: Observations of mice (mortality) during lung retention study; type: in vivo; conditions: healthy mice, IT 50 μL, 3.74 mg/mL nintedanib
Method: as §1

Structure (SMILES): COC(=O)c1ccc2c(c1)NC(=O)/C2=C(\Nc1ccc(N(C)C(=O)CN2CCN(C)CC2)cc1)c1ccccc1 [nintedanib]
- Mean score (fibrosis) ([1]; per animal (No. 4 to 6)): ~2 and 2.0 and 1.4
- Interstitial and subpleural, multifocal fibrosis scores ([1]; single scores per animal (No. 4 to 6)): 2 (2=slight (1-25%)) (12×) and 1 (1=minimal (<1%)) (3×)
- Drug retained in the lung [2]: almost none of the drug was retained in the lung
- Undesired side effects of oral treatment (IPF; current therapeutic amount): diarrhea (most frequent adverse event), nausea, stomach pain, liver problems, vomiting, decreased appetite, headache, weight loss, and high blood pressure
- Reduction of lung function decline (increased forced vital capacity) compared to placebo (IPF; oral, 150 mg twice a day, clinical trials): approximately 50%
- Drug retention in mouse lung [3]: no nintedanib was detected in lung tissue after just a few hours
- Observation of surviving mice (C57BL/6 mice): mice were very weak)
- Mortality (C57BL/6 mice; deaths/mice): 2/9 (the 7 surviving
